Source: the NIST ThermoML archive (doi:10.1016/j.fluid.2018.07.028)
Numbers after ± are expanded uncertainties.

Test: activity coefficient (dimensionless); of the first substance listed, at infinite dilution; xn = mol fraction of the nth substance listed
Settings: 101.33 kPa, Liquid, Chromatography, x1 = 0

| Structure (SMILES) | activity coefficient (358.15 K) | activity coefficient (368.15 K) | activity coefficient (378.15 K) | activity coefficient (388.15 K) | activity coefficient (398.15 K) | activity coefficient (408.15 K) |
| --- | --- | --- | --- | --- | --- | --- |
| CCCCCCCCC [nonane] + CCCC[P+](CCCC)(CCCC)CCCC.O=S(=O)([N-]S(=O)(=O)C(F)(F)F)C(F)(F)F | 8.31 ± 0.57 | 8.15 ± 0.56 | 8.01 ± 0.55 | 7.87 ± 0.54 | 7.74 ± 0.53 | 7.62 ± 0.52 |
| CC(C)=O [acetone] + CCCC[P+](CCCC)(CCCC)CCCC.O=S(=O)([N-]S(=O)(=O)C(F)(F)F)C(F)(F)F | 0.503 ± 0.038 | 0.524 ± 0.039 | 0.545 ± 0.04 | 0.567 ± 0.041 | 0.587 ± 0.042 | 0.607 ± 0.042 |
| CC(C)(C)O [2-methylpropan-2-ol] + CCCC[P+](CCCC)(CCCC)CCCC.O=S(=O)([N-]S(=O)(=O)C(F)(F)F)C(F)(F)F | 1.41 ± 0.09 | 1.4 ± 0.09 | 1.38 ± 0.09 | 1.37 ± 0.09 | 1.36 ± 0.09 | 1.35 ± 0.09 |
| C=CCCCCC [1-heptene] + CCCC[P+](CCCC)(CCCC)CCCC.O=S(=O)([N-]S(=O)(=O)C(F)(F)F)C(F)(F)F | 3.96 ± 0.27 | 4 ± 0.27 | 4.05 ± 0.28 | 4.09 ± 0.28 | 4.13 ± 0.28 | 4.17 ± 0.28 |
| CCC[N+](=O)[O-] [1-nitropropane] + CCCC[P+](CCCC)(CCCC)CCCC.O=S(=O)([N-]S(=O)(=O)C(F)(F)F)C(F)(F)F | 0.693 ± 0.047 | 0.708 ± 0.047 | 0.724 ± 0.048 | 0.739 ± 0.049 | 0.754 ± 0.05 | 0.768 ± 0.05 |
| CCCC(=O)OC [methyl butanoate] + CCCC[P+](CCCC)(CCCC)CCCC.O=S(=O)([N-]S(=O)(=O)C(F)(F)F)C(F)(F)F | 0.946 ± 0.06 | 0.989 ± 0.062 | 1.03 ± 0.06 | 1.08 ± 0.07 | 1.12 ± 0.07 | 1.17 ± 0.07 |
| C1CCCCC1 [cyclohexane] + CCCC[P+](CCCC)(CCCC)CCCC.O=S(=O)([N-]S(=O)(=O)C(F)(F)F)C(F)(F)F | 2.85 ± 0.19 | 2.85 ± 0.19 | 2.85 ± 0.19 | 2.86 ± 0.19 | 2.86 ± 0.19 | 2.86 ± 0.19 |
| C#CCCCCC [1-heptyne] + CCCC[P+](CCCC)(CCCC)CCCC.O=S(=O)([N-]S(=O)(=O)C(F)(F)F)C(F)(F)F | 2.28 ± 0.16 | 2.35 ± 0.16 | 2.42 ± 0.16 | 2.48 ± 0.17 | 2.55 ± 0.17 | 2.62 ± 0.18 |
| CCC(C)CC [3-methylpentane] + CCCC[P+](CCCC)(CCCC)CCCC.O=S(=O)([N-]S(=O)(=O)C(F)(F)F)C(F)(F)F | 4.02 ± 0.27 | 4.04 ± 0.28 | 4.06 ± 0.28 | 4.09 ± 0.28 | 4.11 ± 0.28 | 4.13 ± 0.28 |
| Cc1ccc(C)cc1 [1,4-dimethylbenzene] + CCCC[P+](CCCC)(CCCC)CCCC.O=S(=O)([N-]S(=O)(=O)C(F)(F)F)C(F)(F)F | 1.55 ± 0.1 | 1.6 ± 0.11 | 1.64 ± 0.11 | 1.69 ± 0.11 | 1.74 ± 0.12 | 1.79 ± 0.12 |
| CCCOCCC [dipropyl ether] + CCCC[P+](CCCC)(CCCC)CCCC.O=S(=O)([N-]S(=O)(=O)C(F)(F)F)C(F)(F)F | 2.73 ± 0.19 | 2.78 ± 0.19 | 2.83 ± 0.19 | 2.88 ± 0.2 | 2.93 ± 0.2 | 2.98 ± 0.2 |
| C1CCCCCC1 [cycloheptane] + CCCC[P+](CCCC)(CCCC)CCCC.O=S(=O)([N-]S(=O)(=O)C(F)(F)F)C(F)(F)F | 3.42 ± 0.23 | 3.41 ± 0.23 | 3.4 ± 0.23 | 3.39 ± 0.23 | 3.38 ± 0.23 | 3.37 ± 0.23 |
| CCCC(C)=O [pentan-2-one] + CCCC[P+](CCCC)(CCCC)CCCC.O=S(=O)([N-]S(=O)(=O)C(F)(F)F)C(F)(F)F | 0.62 ± 0.043 | 0.651 ± 0.045 | 0.682 ± 0.046 | 0.714 ± 0.048 | 0.744 ± 0.049 | 0.774 ± 0.051 |
| Cc1ccccc1C [1,2-dimethylbenzene] + CCCC[P+](CCCC)(CCCC)CCCC.O=S(=O)([N-]S(=O)(=O)C(F)(F)F)C(F)(F)F | 1.39 ± 0.09 | 1.43 ± 0.09 | 1.48 ± 0.1 | 1.52 ± 0.1 | 1.57 ± 0.1 | 1.61 ± 0.11 |
| CCCCCCCC [octane] + CCCC[P+](CCCC)(CCCC)CCCC.O=S(=O)([N-]S(=O)(=O)C(F)(F)F)C(F)(F)F | 6.69 ± 0.46 | 6.62 ± 0.45 | 6.56 ± 0.45 | 6.5 ± 0.44 | 6.44 ± 0.44 | 6.39 ± 0.44 |
